Laboratory results published in article PMC11172786, “Melatonin-Regulated Chaperone Binding Protein Plays a Key Role in Cadmium Stress Tolerance in Rice, Revealed by the Functional Characterization of a Novel Serotonin N-Acetyltransferase 3 (SNAT3) in Rice” (International Journal of Molecular Sciences, 2024).

Assays:
[1] = biological target: T1, OsSNAT3 (OsSNAT3-His6) (Oryza sativa, UniProt B7F8K4); experiment: inhibition of serotonin N-acetylation, HPLC; type: biochemical; details: 0.5 mM serotonin and 0.5 mM amine, pH 8.8, 55 °C; possible alternative substrate; tag form not stated for this figure
T1 construct: cDNA-derived N-terminus MGAGEG, C-terminus QAATKK
T1 sequence (B7F8K4 1-179): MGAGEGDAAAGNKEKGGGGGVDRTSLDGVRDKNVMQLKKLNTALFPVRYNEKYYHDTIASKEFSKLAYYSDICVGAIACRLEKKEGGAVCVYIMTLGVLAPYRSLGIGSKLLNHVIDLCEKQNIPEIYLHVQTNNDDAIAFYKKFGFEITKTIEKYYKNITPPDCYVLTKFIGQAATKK

[2] = substrate: NCCc1c[nH]c2ccc(O)cc12; experiment: HPLC detection of N-acetylserotonin, Lineweaver-Burk; type: biochemical, Oryza sativa; details: 0.5 mM acetyl-CoA, 100 mM potassium phosphate pH 8.8, 45 °C
[3] = substrate: COc1ccc2[nH]cc(CCN)c2c1; experiment: HPLC detection of melatonin, Lineweaver-Burk; type: biochemical, Oryza sativa; details: 0.5 mM acetyl-CoA, 100 mM potassium phosphate pH 8.8, 45 °C

Molecule	SNAT activity with 0.5 mM amine [1]	Km [2]	Km [3]
NCCc1ccc(O)c(O)c1 [dopamine]	significantly inhibited by putrescine and dopamine		
NC[C@H](O)c1ccc(O)cc1 [octopamine]	OsSNAT3 activity was strongly inhibited by spermidine and octopamine (Figure 3C)		
NCCCCN [putrescine]	significantly inhibited by putrescine and dopamine		
NCCCCNCCCN [spermidine]	OsSNAT3 activity was strongly inhibited by spermidine and octopamine (Figure 3C)		
OsSNAT3 (OsSNAT3-His6) (Oryza sativa Japonica Group) (protein, cDNA-derived N-terminus MGAGEG, C-terminus QAATKK) MGAGEGDAAAGNKEKGGGGGVDRTSLDGVRDKNVMQLKKLNTALFPVRYNEKYYHDTIASKEFSKLAYYSDICVGAIACRLEKKEGGAVCVYIMTLGVLAPYRSLGIGSKLLNHVIDLCEKQNIPEIYLHVQTNNDDAIAFYKKFGFEITKTIEKYYKNITPPDCYVLTKFIGQAATKK		1152 µM	1587 µM
